How the values were obtained:
Thromboxane A2 receptor = molecular target: T1, Thromboxane A2 receptor (Homo sapiens, UniProt P21731); assay type: functional, cell-based
T1 sequence (P21731 whole entry): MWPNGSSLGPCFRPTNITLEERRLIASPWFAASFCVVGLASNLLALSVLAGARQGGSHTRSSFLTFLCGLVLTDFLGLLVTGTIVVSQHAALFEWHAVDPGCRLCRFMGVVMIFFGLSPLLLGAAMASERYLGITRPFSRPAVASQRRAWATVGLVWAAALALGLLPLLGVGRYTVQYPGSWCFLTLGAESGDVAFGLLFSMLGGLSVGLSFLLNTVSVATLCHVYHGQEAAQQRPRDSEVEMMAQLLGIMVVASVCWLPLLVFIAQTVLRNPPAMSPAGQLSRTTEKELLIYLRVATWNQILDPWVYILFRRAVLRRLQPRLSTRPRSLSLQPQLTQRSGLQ

Adenosine receptor A3 = molecular target: T2, Adenosine receptor A3 (Homo sapiens, UniProt P0DMS8)
T2 sequence (P0DMS8 whole entry): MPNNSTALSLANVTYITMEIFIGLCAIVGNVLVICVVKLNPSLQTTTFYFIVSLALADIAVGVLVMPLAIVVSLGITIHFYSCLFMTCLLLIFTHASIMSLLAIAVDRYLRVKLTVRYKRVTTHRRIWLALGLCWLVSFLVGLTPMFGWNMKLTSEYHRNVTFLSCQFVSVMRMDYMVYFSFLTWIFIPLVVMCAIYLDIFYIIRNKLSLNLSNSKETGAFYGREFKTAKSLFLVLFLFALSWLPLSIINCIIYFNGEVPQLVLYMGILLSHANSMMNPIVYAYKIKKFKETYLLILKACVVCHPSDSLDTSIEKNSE

[1] = molecular target: Sodium-dependent dopamine transporter (Homo sapiens, UniProt Q01959)
[2] = molecular target: T3, Alpha-1A adrenergic receptor (Homo sapiens, UniProt P35348); assay type: functional, cell-based
T3 sequence (P35348 whole entry): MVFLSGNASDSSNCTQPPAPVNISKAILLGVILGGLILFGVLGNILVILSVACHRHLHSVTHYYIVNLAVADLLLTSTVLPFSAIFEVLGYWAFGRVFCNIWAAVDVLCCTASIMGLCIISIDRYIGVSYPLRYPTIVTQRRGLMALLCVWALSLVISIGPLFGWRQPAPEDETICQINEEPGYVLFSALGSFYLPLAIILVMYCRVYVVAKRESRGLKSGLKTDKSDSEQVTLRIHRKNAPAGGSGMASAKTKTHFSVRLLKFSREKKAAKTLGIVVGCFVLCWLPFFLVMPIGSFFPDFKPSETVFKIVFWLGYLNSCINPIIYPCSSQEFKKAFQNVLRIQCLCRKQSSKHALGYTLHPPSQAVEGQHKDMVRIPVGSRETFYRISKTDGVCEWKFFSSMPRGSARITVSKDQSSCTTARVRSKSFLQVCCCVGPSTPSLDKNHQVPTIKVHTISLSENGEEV

B1 bradykinin receptor = molecular target: T4, B1 bradykinin receptor (Homo sapiens, UniProt P46663)
T4 sequence (P46663 whole entry): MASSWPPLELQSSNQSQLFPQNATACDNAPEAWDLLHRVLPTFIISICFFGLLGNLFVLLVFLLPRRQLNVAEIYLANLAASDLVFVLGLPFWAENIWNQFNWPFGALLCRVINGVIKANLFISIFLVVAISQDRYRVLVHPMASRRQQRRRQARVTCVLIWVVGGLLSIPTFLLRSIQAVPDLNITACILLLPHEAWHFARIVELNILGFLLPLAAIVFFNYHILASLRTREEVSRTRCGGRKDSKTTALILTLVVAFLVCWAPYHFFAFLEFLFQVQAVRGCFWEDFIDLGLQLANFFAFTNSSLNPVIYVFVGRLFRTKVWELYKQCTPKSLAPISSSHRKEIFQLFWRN

[3] = molecular target: Voltage-dependent N-type calcium channel subunit alpha-1B (Rattus norvegicus, UniProt Q02294); assay type: functional
[4] = molecular target: T5, Corticotropin-releasing factor receptor 1 (Homo sapiens, UniProt P34998)
T5 sequence (P34998 whole entry): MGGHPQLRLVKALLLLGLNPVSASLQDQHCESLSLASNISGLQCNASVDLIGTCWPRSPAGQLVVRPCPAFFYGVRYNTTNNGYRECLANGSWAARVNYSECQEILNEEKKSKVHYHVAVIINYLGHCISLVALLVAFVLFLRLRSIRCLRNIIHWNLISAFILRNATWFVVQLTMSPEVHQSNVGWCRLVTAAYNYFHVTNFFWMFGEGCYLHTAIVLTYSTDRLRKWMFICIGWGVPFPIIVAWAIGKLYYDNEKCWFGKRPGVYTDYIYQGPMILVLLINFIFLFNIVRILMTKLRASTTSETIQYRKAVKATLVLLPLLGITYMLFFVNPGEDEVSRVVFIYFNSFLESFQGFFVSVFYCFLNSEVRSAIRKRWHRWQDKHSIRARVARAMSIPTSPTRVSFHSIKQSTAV

[5] = molecular target: T6, Alpha-2A adrenergic receptor (Homo sapiens, UniProt P08913)
T6 sequence (P08913 whole entry): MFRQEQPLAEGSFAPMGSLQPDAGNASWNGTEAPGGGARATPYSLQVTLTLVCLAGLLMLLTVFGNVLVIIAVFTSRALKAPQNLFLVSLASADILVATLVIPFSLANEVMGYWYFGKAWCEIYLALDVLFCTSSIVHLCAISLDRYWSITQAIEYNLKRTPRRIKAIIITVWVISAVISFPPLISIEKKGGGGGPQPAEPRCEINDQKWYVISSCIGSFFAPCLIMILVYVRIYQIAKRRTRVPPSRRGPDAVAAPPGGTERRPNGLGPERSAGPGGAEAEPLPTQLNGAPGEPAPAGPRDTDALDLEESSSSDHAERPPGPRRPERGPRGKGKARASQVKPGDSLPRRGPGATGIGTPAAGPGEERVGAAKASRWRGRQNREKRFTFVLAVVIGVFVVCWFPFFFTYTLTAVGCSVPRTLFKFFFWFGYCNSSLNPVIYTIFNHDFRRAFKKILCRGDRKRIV
Also: assay procedure not described here.

Sequence of Sodium-dependent dopamine transporter (Q01959 whole entry): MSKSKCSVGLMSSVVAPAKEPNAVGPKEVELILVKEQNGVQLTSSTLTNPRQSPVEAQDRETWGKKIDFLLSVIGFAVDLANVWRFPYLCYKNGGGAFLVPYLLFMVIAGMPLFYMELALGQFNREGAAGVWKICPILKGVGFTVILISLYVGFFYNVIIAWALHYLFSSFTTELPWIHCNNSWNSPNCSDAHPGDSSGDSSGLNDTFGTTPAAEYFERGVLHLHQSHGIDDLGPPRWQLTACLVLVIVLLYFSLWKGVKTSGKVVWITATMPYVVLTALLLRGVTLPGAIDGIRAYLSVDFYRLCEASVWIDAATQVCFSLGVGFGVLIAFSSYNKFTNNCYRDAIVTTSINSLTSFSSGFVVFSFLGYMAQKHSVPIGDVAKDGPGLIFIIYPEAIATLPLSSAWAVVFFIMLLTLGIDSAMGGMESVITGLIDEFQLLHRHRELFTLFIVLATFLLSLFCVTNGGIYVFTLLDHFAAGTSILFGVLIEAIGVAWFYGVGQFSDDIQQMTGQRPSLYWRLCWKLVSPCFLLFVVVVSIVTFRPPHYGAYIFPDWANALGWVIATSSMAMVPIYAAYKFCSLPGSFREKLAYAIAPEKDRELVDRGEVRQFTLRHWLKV
Sequence of Voltage-dependent N-type calcium channel subunit alpha-1B (Q02294 whole entry): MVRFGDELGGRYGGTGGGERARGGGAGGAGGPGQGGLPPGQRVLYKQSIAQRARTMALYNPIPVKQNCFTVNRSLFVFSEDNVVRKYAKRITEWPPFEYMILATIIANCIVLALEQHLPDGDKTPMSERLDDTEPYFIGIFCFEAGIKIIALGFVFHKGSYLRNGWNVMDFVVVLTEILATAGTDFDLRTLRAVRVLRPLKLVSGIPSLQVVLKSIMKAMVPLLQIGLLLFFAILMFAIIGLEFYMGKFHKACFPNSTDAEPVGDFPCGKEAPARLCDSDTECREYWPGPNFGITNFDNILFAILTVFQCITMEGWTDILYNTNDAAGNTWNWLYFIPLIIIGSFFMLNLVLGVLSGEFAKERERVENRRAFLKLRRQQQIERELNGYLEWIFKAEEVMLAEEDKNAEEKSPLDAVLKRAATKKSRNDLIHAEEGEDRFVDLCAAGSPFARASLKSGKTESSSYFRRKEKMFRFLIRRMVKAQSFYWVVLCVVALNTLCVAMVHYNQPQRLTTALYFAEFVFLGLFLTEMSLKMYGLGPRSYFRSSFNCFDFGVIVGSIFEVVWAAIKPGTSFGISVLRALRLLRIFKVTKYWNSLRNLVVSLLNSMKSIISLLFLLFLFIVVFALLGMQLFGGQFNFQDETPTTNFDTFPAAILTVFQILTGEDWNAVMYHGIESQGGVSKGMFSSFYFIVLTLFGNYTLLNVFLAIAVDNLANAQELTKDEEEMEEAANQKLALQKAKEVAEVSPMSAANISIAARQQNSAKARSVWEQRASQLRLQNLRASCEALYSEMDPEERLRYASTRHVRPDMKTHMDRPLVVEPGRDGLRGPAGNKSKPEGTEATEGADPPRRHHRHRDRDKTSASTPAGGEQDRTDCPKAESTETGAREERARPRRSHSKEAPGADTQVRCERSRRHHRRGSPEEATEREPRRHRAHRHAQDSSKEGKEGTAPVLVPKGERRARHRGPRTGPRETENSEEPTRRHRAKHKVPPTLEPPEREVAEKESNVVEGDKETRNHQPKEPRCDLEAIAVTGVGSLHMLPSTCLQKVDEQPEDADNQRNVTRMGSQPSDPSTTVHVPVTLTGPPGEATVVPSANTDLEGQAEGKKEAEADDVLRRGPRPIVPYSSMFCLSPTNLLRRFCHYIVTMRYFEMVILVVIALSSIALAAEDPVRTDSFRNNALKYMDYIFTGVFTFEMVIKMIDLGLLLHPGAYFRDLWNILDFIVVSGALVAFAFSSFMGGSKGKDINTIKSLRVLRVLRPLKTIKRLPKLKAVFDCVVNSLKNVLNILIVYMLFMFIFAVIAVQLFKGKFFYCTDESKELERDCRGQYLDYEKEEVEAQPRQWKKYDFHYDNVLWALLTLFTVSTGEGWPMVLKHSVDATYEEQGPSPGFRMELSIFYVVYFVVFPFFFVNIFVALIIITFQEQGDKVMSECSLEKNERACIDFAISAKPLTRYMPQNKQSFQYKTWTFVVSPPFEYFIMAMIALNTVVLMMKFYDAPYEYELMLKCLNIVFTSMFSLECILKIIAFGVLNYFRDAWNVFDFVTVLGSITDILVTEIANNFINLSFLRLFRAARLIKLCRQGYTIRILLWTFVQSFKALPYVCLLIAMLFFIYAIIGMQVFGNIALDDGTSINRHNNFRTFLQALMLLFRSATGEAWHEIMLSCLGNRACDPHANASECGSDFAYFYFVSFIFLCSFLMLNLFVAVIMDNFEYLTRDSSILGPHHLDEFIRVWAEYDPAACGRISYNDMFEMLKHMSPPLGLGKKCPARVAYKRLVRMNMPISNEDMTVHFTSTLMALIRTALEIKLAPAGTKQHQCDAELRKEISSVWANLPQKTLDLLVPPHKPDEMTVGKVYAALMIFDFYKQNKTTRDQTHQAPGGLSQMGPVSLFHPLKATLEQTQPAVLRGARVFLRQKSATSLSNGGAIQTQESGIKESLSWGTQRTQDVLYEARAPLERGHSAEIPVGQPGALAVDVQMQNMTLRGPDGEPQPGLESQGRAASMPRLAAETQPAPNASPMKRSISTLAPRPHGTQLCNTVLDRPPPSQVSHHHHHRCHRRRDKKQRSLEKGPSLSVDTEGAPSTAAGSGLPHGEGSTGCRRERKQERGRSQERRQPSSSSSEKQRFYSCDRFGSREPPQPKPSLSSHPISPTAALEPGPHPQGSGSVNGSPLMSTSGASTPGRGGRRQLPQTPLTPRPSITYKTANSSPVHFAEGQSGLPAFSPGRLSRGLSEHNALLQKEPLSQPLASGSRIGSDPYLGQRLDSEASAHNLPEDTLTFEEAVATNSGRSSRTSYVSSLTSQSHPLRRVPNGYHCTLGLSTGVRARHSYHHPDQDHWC

Structure (SMILES) | AC50 (Thromboxane A2 receptor) [µM] | AC50 (Adenosine receptor A3) [µM] | AC50 [1] [µM] | AC50 [2] [µM] | AC50 (B1 bradykinin receptor) [µM] | AC50 [3] [µM] | AC50 [4] [µM] | AC50 [5] [µM]
Nc1c2ccccc2nc2ccccc12 [AMINACRINE] | > 30 | 9.62 | > 30 | 9.77 | – | – | – | –
CC(=O)OCC(=O)[C@@]1(O)[C@H](C)C[C@H]2[C@@H]3CCC4=CC(=O)C=C[C@]4(C)[C@@]3(F)[C@@H](O)C[C@@]21C [DEXAMETHASONE ACETATE] | – | – | – | – | > 30 | > 10 | > 30 | –
Cn1c(=O)cc(N2CCC[C@@H](N)C2)n(Cc2ccccc2C#N)c1=O [ALOGLIPTIN] | – | – | – | – | > 30 | > 10 | > 30 | > 10
Cc1ncc2n1-c1ccc(Cl)cc1C(c1ccccc1F)=NC2 [MIDAZOLAM] | – | – | – | – | – | – | – | > 10
O=C(O)CCCCC1CCSS1 (stereo not drawn) [LIPOIC ACID, ALPHA] | > 30 | > 30 | > 30 | > 30 | – | – | – | –
